Experimental data reported in patent US20030054980A1, “Ceruloplasmin and uses thereof in neurodegenerative related conditions” (priority 2000, published 2003).

What was measured:
[1] = test system: P19 neurons; assay: Pro-aggregative effect on P19 neurons (culture morphology, surfaces not occupied by cells); conditions: for Morphological change: 24 h; for induction of neuronal aggregation (text summary of Table 1): concentrations of Table 1, copper equivalent to (His2Cu: or higher than) that in CP
Protocol: Undifferentiated P19 cells were propagated in complete medium containing alpha-modified Eagle's minimal essential medium (α-MEM; Gibco-BRL, Burlington, Ontario) supplemented with 10% heat-inactivated fetal bovine serum (Cansera International, Rexdale, Ontario), 2.5 U/mL penicillin and 2.5 μg/mL streptomycin (Sigma-Aldrich). Cells were maintained at 37° C. in a humidified atmosphere of 5% CO2 and passaged every two days on non-coated tissue culture dishes. To achieve neuronal differentiation, P19 cells were seeded in bacteriological-grade petri dishes at a density of 0.9×10^5 cells/mL, and grown as aggregates, during 4 days, in complete medium containing 0.5 μM RA (Sigma-Aldrich). At day 4, aggregates were dissociated by incubation for 3 min, at room temperature, with 0.025% trypsin (250 Nα-benzoyl-L-Arg-ethyl ester (BAEE) unit per 15×10^6 cells; Sigma-Aldrich) in phosphate buffer saline (PBS) containing 1 mM EDTA, and digestion stopped by adding an equal volume of complete α-MEM medium. The resulting cellular suspensions were passaged by pipetting and subjected to two wash-and-centrifuge cycles, and individualized cells (neurons) were transferred (1500-1800 cells/mm^2) to gelatinized tissue culture dishes or multiwell plates containing NEUROBASAL™ medium (Gibco-BRL) supplemented with B27™ supplement (Gibco-BRL) and 0.5 mM L-glutamine, but no RA. Gelatinization of culture surfaces was done by incubation with 0.1% gelatin for 0.5 h at 22° C., followed by several washes with PBS to remove unbound protein. For comparison purposes, solutions of 2% gelatin, 10 μg/mL fibronectin, 10 μg/mL laminin and 5 mg/mL CP (in this case, in a proportion of 50 μL per cm^2) were also used for coating. Differentiation to fibroblasts was done by culturing P19 cells as monolayers, for 4 days, in complete medium containing RA. Cells were trypsinized every 2 days and replated in non-coated tissue culture dishes each time. From day 4 and after, cells were cultured in complete medium without RA.
At 3, 24 or 48 h after plating, P19 neurons were incubated for 24 h in a fresh provision of supplemented Neurobasal medium not containing (control) or containing CP or another agent. Protease inhibitors were added 1 h before CP. Freshly individualized cells of the other cell types tested were let to adhere to culture surfaces, in their normal culture medium (containing serum), for times indicated: undifferentiated P19 cells and their fibroblast derivatives (both for 3 and 24 h), rat smooth muscle cells (7 days), and rat hepatocytes (3 h). Afterwards, cells were extensively rinsed with PBS and incubated for 24 h in supplemented Neurobasal medium in the absence or presence of CP. After treatment with CP or other agents, cells were examined for morphology, viability, ALAMARBLUE™ dye penetration and/or apoptosis, as indicated below.
Morphological analysis was done by inversion microscopy (NIKKON™ TMS), using phase-contrast objectives and a camera (NIKKON™ F70).

[2] = test system: P19 neurons; assay: Inhibition of CP-induced neuronal aggregation; assay type: cell-based, mouse; conditions: for inhibition of CP-induced aggregation, inhibitors tested individually: 6-7 TIU/mL or half this concentration, 3.8 μM CP; for inhibition of CP-induced neuronal aggregation: 6-7 trypsin inhibitory U/mL each, added 1 h before 3.8 μM CP, morphology and dye penetration analysis
Protocol: Protease inhibitors were added 1 h before CP.
Day 4 P19 neurons were plated in 24- or 48-well plates in prevision of dye penetration analysis. After treatment with CP or other agents, cells were incubated for 5 h with 500 μL of a solution containing one part of ALAMARBLUE™ (Medicorp Inc., Montreal, Quebec, Canada) and nine parts of fresh supplemented Neurobasal medium. This dye is reduced to a fluorescent derivative by metabolic activity of living cells. At the end of incubation, the fluorescence of the culture medium was monitored at 590 nm, using 540 nm as the excitation wavelength.

[3] = test system: resorufin-labeled casein; assay: Detection of proteolytic activity with resorufin-labeled casein; assay type: biochemical; conditions: culture media conditioned by cells, in all cases
Protocol: Evaluation of proteolytic activity in CP preparations or in cell culture media was done with resorufin-labeled casein (universal protease chromogenic substrate; Roche Diagnostics). Aliquots (100 μL) of CP solutions (about 13 mg/mL) or of culture media of cells after 24 h treatment with and without CP were incubated at 37° C. for various times (up to 22 h), with 50 μL of resorufin-labeled casein solution provided by the manufacturer and 50 μL of 0.2 M Tris-HCl, pH 7.8 containing 0.02 M CaCl2. The reaction was stopped by adding 480 μL of 5% trichloroacetic acid. After 10 min of incubation at 37° C. and 5 min of centrifugation, 400 μL of the resulting supernatants were mixed with 600 μL of 0.5 M Tris-HCl, pH 8.8, and absorbance read at 574 nm. Alternately, resorufin-labeled casein was added to culture media (50 μL substrate for each 150 μL supplemented NEUROBASAL™ medium) while cells were being treated with CP. Culture media were removed at various times (up to 24 h) and subjected to acid precipitation and spectrophotometric measurement as indicated above. Trypsin (10100 U BAEE/mg; Sigma-Aldrich) was used as a standard.

[4] = 1.14 to 49.2 μM, day 4 P19 neurons on gelatin

NC(Cc1c[nH]cn1)C(=O)[O-].NC(Cc1c[nH]cn1)C(=O)[O-].[Cu+2] (stereo not shown) [(His)2Cu complex]
Morphological change ([1]; 23 to 390 μM): no aggregation
induction of neuronal aggregation (text summary of Table 1) [1]: did not induce neuronal aggregation

[Cl][Cu][Cl] [CuCI2, CuCl2]
Morphological change ([1]; 246 μM): cell death
Morphological change [1, 4]: no aggregation
induction of neuronal aggregation (text summary of Table 1) [1]: did not induce neuronal aggregation

O=S(=O)([O-])[O-].[Cu+2] [CuSO4]
Morphological change ([1]; 246 μM): cell death
Morphological change [1, 4]: no aggregation
induction of neuronal aggregation (text summary of Table 1) [1]: did not induce neuronal aggregation

Bovine serum albumin: serum protein that can transport copper ions
inhibition of CP-induced neuroaggregation ([2]; albumin at 3.6 μM): did not inhibit
Morphological change ([1]; 0.3 to 7.5 μM): no aggregation
induction of neuronal aggregation (text summary of Table 1) [1]: failed to induce-aggregation

aprotinin
inhibition of CP-induced aggregation, inhibitors tested individually [2]: Complete inhibition of aggregation
inhibition of CP-induced neuronal aggregation [2]: completely hindered
hydrolysis of resorufin-labeled casein [3]: completely abolished hydrolysis

B1: Bovine serum amineoxidase: 180 kDa circulating non-blue copper protein (protein, UniProt Q29437 17-762, looked up)
Primary amine oxidase, liver …: REEGGVGSEEGVGKQCHPSLPPRCPSRSPSDQPWTHPDQSQLFADLSREELTTVMSFLTQQLGPDLVDAAQARPSDNCVFSVELQLPPKAAALAHLDRGSPPPAREALAIVFFGGQPQPNVTELVVGPLPQPSYMRDVTVERHGGPLPYYRRPVLLREYLDIDQMIFNRELPQAAGVLHHCCSYKQGGQKLLTMNSAPRGVQSGDRSTWFGIYYNITKGGPYLHPVGLELLVDHKALDPADWTVQKVFFQGRYYENLAQLEEQFEAGQVNVVVIPDDGTGGFWSLKSQVPPGPTPPLQFHPQGPRFSVQGNRVASSLWTFSFGLGAFSGPRVFDVRFQGERLAYEISLQEAGAVYGGNTPAAMLTRYMDSGFGMGYFATPLIRGVDCPYLATYMDWHFVVESQTPKTLHDAFCVFEQNKGLPLRRHHSDFLSHYFGGVAQTVLVFRSVSTMLNYDYVWDMVFYPNGAIEVKLHATGYISSAFLFGAARRYGNQVGEHTLGPVHTHSAHYKVDLDVGGLENWVWAEDMAFVPTAIPWSPEHQIQRLQVTRKQLETEEQAAFPLGGASPRYLYLASKQSNKWGHPRGYRIQTVSFAGGPMPQNSPMERAFSWGRYQLAITQRKETEPSSSSVFNQNDPWTPTVDFSDFINNETIAGKDLVAWVTAGFLHIPHAEDIPNTVTVGNGVGFFLRPYNFFDQEPSMDSADSIYFREGQDAGSCEINPLACLPQAATCAPDLPVFSHGGYPEY
Morphological change ([1]; 0.28 to 0.56 μM): no aggregation
induction of neuronal aggregation (text summary of Table 1) [1]: did not induce aggregation

B2: SBTI: soybean trypsin inhibitor, serine protease inhibitor (protein, UniProt P01070 25-205, looked up)
Trypsin inhibitor A: DFVLDNEGNPLENGGTYYILSDITAFGGIRAAPTGNERCPLTVVQSRNELDKGIGTIISSPYRIRFIAEGHPLSLKFDSFAVIMLCVGIPTEWSVVEDLPEGPAVKIGENKDAMDGWFRLERVSDDEFNNYKLVFCPQQAEDDKCGDIGISIDHDDGTRRLVVSKNKPLVVQFQKLDKESL
inhibition of CP-induced aggregation, inhibitors tested individually [2]: Complete inhibition of aggregation
inhibition of CP-induced neuronal aggregation [2]: completely hindered
hydrolysis of resorufin-labeled casein [3]: completely abolished hydrolysis
